In US20060167106A1, “Compounds acting at the centrosome” (priority 2004, published 2006):
Entries after “also recorded” stand apart in the source; their conditions may differ. Non-standard residues stand in square brackets, D forms with d. Residues, ends and D or L forms follow the SMILES beside them. *: point of attachment. Nva = CCC[C@H](N)C(=O)O; Cbz = O=C(OCc1ccccc1)*

Legend:
[1] = system: CHO-α-tubulin-YFP cells; assay: α-tubulin-YFP localization in CHO-α-tubulin-YFP cells (fluorescence imaging); type: cell-based, Chinese hamster; conditions: for accumulation of α-tubulin-YFP in the nucleus: 8 hours post-treatment; for accumulation of tubulin at the centrosomes versus in the nucleus (overall statement): cells treated, concentration not given
From the text: Wild-type Chinese Hamster Ovary cells (WT CHO) cells were maintained in Ham's F-12 medium supplemented with 10% fetal bovine serum (FBS; HyClone, Logan, Utah). Cells of low density (˜20%) growing on 2-well chambered cover-slips (Labtek (Campbell, Calif.) or Fisher Scientific) were transfected with a mammalian expression vector encoding α-tubulin-YFP (Clontech, Palo Alto, Calif.) with the use of FuGENE 6 (Roche Molecular Biochemicals, Indianapolis, Ind.), according to the manufacturer's instructions. Twenty-four hours after transfection, the cells were cultured in 400 μg/ml G418 (Invitrogen, Carlsbad, Calif.)-containing selection medium for 2 weeks. Living cells were examined using a fluorescent microscope for α-tubulin-YFP expression. Cells in single colonies containing microtubules labeled with α-tubulin-YFP were lifted and expanded in G418-containing medium. Expression of α-tubulin-YFP was confirmed by the presence of the tubulin-YFP labeled microtubule pattern identical to immunostained microtubule pattern of non-transfected cells, as well as by subjecting the cells to Western blot analysis using an anti-GFP antibody (Roche Molecular Biochemicals, Basel, Switzerland) and confirming the correct mass of the α-tubulin-YFP chimera protein. Expressed tubulin-YFP was detected as a single band in Western blots. The tubulin-YFP expressing cell lines (referred as CHO-α-tubulin-YFP cells) were used in the studies.
CHO-α-tubulin-YFP cells were cultured in 2-well chambered cover-slips (Labtek (Campbell, Calif.) or Fisher Scientific) 24 hours before treatment. For comparison of the centrosomal effects of treatment with Compound 1, Compound 1+Taxol, and Taxol, CHO-α-tubulin-YFP cells were treated with Compound 1, Compound 1+Taxol, Taxol, or equivalent concentrations of DMSO-containing media for various time periods before imaging. For comparison of the effects of Compound 1 and known proteasome inhibitors on centrosomes, the nucleus, and perinuclear regions, CHO-α-tubulin-YFP cells were treated with Compound 1, ALLN (Calbiochem, San Diego, Calif.), lactacystin (Calbiochem, San Diego, Calif.) or MG132 (Calbiochem, San Diego, Calif.), and imaged at various time points from 3 hours to 24 hours after treatment.
Tubulin-YFP fluorescence in living cells or fixed cells was captured using a standard filter for FITC and objectives of 20× or 60× magnification on a Nikon TE300 microscope with a Leica DC50 color digital camera (Leica, Bannockburn, Ill.) or a CoolSnap HQ Monochrome CCD camera (Photonetrics, Tucson, Ariz.). The Leica DC50 and CoolSnapHQ cameras were controlled with Leica DC50 software and MetaVue/MetaMorph software, respectively (Universal Imaging Corp, Downingtown, Pa.).
CHO-α-tubulin-YFP cells were cultured in 2-well chambered cover-slips (Labtek (Campbell, Calif.) or Fisher Scientific) 24 hours before treatment. For comparison of effects on the centrosome, nucleus, and perinuclear regions, cells were treated with Compound 1 and known proteasome inhibitors including ALLN, MG132, Lactacystin, MG115, clasto-Lactacystin β-Lactone (cLβL), and Epoxomicin (10 μM final concentration for all except ALLN, which was used at 100 μM final concentration) (proteasome inhibitors were from Calbiochem, San Diego, Calif.) and imaged at various time points up to 24 hours during treatment.
Tubulin-YFP fluorescence in living cells or fixed cells was captured using a standard filter for FITC and objectives of 20× or 60× magnification on the Nikon TE300 microscope/digital imaging system.

[2] = target: T1, bovine red blood cell 20S proteasome (Bos taurus, UniProt Q32KL2); assay: 20S Proteasome Assay (in vitro, Suc-Leu-Val-Tyr-AMC); type: biochemical; conditions: isolated 20S proteasome
T1 construct: bovine red blood cell 20S proteasome; purchased Calbiochem; host or cells: purified from bovine red blood cells
Procedure: 190 μl of reaction buffer (500 mM HEPES, 10 nM EDTA, pH 7.6), containing 0.03% SDS was pre-incubated for 5 minutes at 37° C. in the presence of 0.2 μg of bovine red blood cell 20S proteasome (Calbiochem, San Diego, Calif.) for temperature equilibration. Subsequently, inhibitors or Compound 1 were added to the reaction mixture at a final DMSO concentration of 0.5%. The reaction was initiated by adding 10 μl of the peptide-AMC substrate (Calbiochem, San Diego, Calif.) to each well. The emitted fluorescence was then measured every third minute at 37° C. for 90 minutes by a fluorescence plate reader (FlexStation II, Molecular Devices, Sunnyvale, Calif.) at 460 nm (λex360 nm) wavelength.
The buffers and reagents for the assay were purchased from Calbiochem (20S Proteasome Assay Kit; Calbiochem, San Diego, Calif.). The principle of the assay is that the release of free AMC (7-Amino-4-methylcoumarin) following degradation of the substrate results in a fluorescent signal that is a measure of proteasome activity. The quantitative analysis of 20S proteasome activity was assayed as described.

[3] = system: 26S proteasome; assay: Proteasome-sensor cells (HEK-293, GFP chimera), fluorescence imaging; type: cell-based; conditions: HEK-293, 0.5 μM, 24 hours
From the text: Specifically, the proteasome-sensor cells are HEK-293 cells stably transfected with a vector (proteasome-sensor vector) that encodes naturally-occurring reef coral Zoanthus sp. green fluorescent protein (GFP) fused to a specific degradation motif that targets the fusion protein for removal by the 26S proteasome. The background fluorescence observed in normal cells with active proteasomes is low. When proteasomes are inhibited, the fluorescent protein quickly accumulates. […] Millennium Pharmaceuticals, Inc., Cambridge, Mass.). […] Velcade (Millennium Pharmaceuticals Inc.) was used as a positive control in this assay (at 5 nM, 50 nM, 500 nM or 5 μM). Velcade stock solution was prepared according to the manufacturer's instructions. GFP fluorescence of the cells was imaged at various time points using a standard filter for FITC with the Nikon TE300 microscope/digital imaging system described herein.

SMILES | accumulation of α-tubulin-YFP in the nucleus ([1]; CHO cells, 10 μM) | accumulation of tubulin at the centrosomes versus in the nucleus (overall statement) [1] | accumulation of tubulin-YFP at the centrosomes ([1]; CHO cells, 10 μM, 24 hours) | also measured
CC[C@]1(O)C[C@H]2CN(CCc3c([nH]c4ccccc34)[C@@](C(=O)OC)(c3cc4c(cc3OC)N(C=O)[C@H]3[C@@](O)(C(=O)OC)[C@H](OC(C)=O)[C@]5(CC)C=CCN6CC[C@]43[C@@H]65)C2)C1 [Vincristine] |  |  |  | accumulation of tubulin-YFP at the centrosomes ([1]; CHO cells, 1 μM, 24 hours): lack of accumulation of tubulin-YFP at the centrosomes
CN(NC(=O)CC(=O)NN(C)C(=S)c1ccccc1)C(=O)c1ccccc1 [Compound 3] |  |  |  | accumulation of tubulin-YFP at the centrosomes ([1]; CHO cells, 5 μM, 4 hours): lack of accumulation of tubulin-YFP at the centrosomes
CC(C)[C@H](O)[C@@]12NC(=O)[C@H](C)[C@@H]1OC2=O [clasto-Lactacystin β-Lactone] | accumulation of α-tubulin-YFP in the nucleus; also recorded: caused the accumulation of YFP-tubulin in the nucleus | both accumulation of tubulin at the centrosomes and in the nucleus |  | 
CN(NC(=O)CC(=O)NN(C)C(=S)c1ccccc1)C(=S)c1ccccc1 [Compound 2] |  |  |  | proteasome inhibitory activity in vitro ([2]; 50 μM): neither Compound 1 nor its salt form, Compound 2, displayed significant proteasome inhibitory activity; accumulation of proteasome-sensor protein in cells [3]: accumulation of proteasome-sensor protein in cells
CC[C@H](C)[C@H](NC(=O)[C@H]([C@@H](C)CC)N(C)C(C)=O)C(=O)N[C@H](C(=O)N[C@@H](CC(C)C)C(=O)[C@@]1(C)CO1)[C@@H](C)O [Epoxomicin] | accumulation of α-tubulin-YFP in the nucleus; also recorded: caused the accumulation of YFP-tubulin in the nucleus | both accumulation of tubulin at the centrosomes and in the nucleus |  | 
CC(=O)N[C@@H](CSC(=O)[C@]1([C@@H](O)C(C)C)NC(=O)[C@H](C)[C@@H]1O)C(=O)O [Lactacystin] | accumulation of α-tubulin-YFP in the nucleus; also recorded: caused the accumulation of YFP-tubulin in the nucleus | both accumulation of tubulin at the centrosomes and in the nucleus | accumulation of tubulin-YFP at the centrosomes | proteasome inhibitory activity in vitro (overall statement) [2]: exhibited proteasome inhibitory activity; proteasome activity in vitro ([2]; 5 nM): detectable decrease in proteasome activity; accumulation of α-tubulin-YFP at the centrosomes ([1]; CHO cells, 10 μM, 5 hours): accumulation of α-tubulin-YFP at the centrosomes and perinuclear regions; accumulation of tubulin in the centrosomes (overall statement) ([1]; CHO-tubulin-YFP cells, concentration and time not given): caused accumulation of tubulin-YFP at the centrosomes and in the perinuclear region
C/C1=C/C[C@@H](/C(C)=C/c2csc(C)n2)OC(=O)C[C@H](O)C(C)(C)C(=O)[C@H](C)[C@@H](O)[C@@H](C)CCC1 [Epothilone D] |  |  | lack of accumulation of tubulin-YFP at the centrosomes | 
CCC[C@@H](C=O)NC(=O)[C@H](CC(C)C)NC(=O)[C@H](CC(C)C)NC(=O)OCc1ccccc1 [MG115] (Cbz-Leu-Leu-[Nva]-aldehyde) | caused the accumulation of YFP-tubulin in the nucleus | both accumulation of tubulin at the centrosomes and in the nucleus |  | accumulation of α-tubulin-YFP in the nucleus ([1]; CHO cells, 10 μM, listed as MG-115): accumulation of α-tubulin-YFP in the nucleus
Cc1cc(NC(=O)C(=O)c2cc(Cc3ccc(C#N)cc3)n3ccccc23)sn1 [Compound 4] |  |  | lack of accumulation of tubulin-YFP at the centrosomes | 
